According to ChEMBL document CHEMBL4804286, “3-amino-4-(4-(4 (dimethylcarbamoyl) phenyl)-1,4-diazepan-1-yl) thieno [2,3-b] pyridine-2-carboxamide for use in cancer therapy and formulations comprising the same” (2020):
“And” between values parts separate entries of the source, which are not always exact repeats. Identical values can stand only once. The source made the active and inactive calls. No cut-off for these calls is given here.

Legend:
[1] = target: Serine/threonine-protein kinase LATS1 (Homo sapiens) (UniProt O95835); experiment: Inhibition of human LATS1 assessed as percent of control at 2000 nM by KINOMEscan assay relative to control; set-up: scale not given: the % may be the effect or the level left
[2] = tested on: Hepatocyte growth factor receptor (Homo sapiens), P08581 [M1250T]; experiment: Inhibition of human MET M1250T mutant assessed as percent of control at 2000 nM by KINOMEscan assay relative to control; set-up: scale not given: the % may be the effect or the level left
[3] = target: Death-associated protein kinase 2 (Homo sapiens) (UniProt Q9UIK4); experiment: Inhibition of human DAPK2 assessed as percent of control at 2000 nM by KINOMEscan assay relative to control; set-up: scale not given: the % may be the effect or the level left
Chain of Death-associated protein kinase 2 (Homo sapiens) (Q9UIK4 whole entry, looked up): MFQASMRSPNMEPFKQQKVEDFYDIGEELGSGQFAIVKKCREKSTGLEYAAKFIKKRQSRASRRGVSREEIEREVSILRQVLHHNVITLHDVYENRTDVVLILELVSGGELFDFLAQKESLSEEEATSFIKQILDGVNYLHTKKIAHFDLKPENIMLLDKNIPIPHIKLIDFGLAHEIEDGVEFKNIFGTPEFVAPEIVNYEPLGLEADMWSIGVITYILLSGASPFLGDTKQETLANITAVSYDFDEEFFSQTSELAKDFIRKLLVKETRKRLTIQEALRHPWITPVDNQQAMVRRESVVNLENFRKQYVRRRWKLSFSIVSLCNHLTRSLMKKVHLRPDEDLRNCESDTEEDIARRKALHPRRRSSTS

[4] = target: 3-phosphoinositide-dependent protein kinase 1 (Homo sapiens) (UniProt O15530); experiment: Inhibition of human PDPK1 assessed as percent of control at 2000 nM by KINOMEscan assay relative to control; set-up: scale not given: the % may be the effect or the level left
[5] = target: Serine/threonine-protein kinase 25 (Homo sapiens) (UniProt O00506); experiment: Inhibition of human YSK1 assessed as percent of control at 2000 nM by KINOMEscan assay relative to control; set-up: scale not given: the % may be the effect or the level left
Chain of Serine/threonine-protein kinase 25 (Homo sapiens) (O00506 whole entry, looked up): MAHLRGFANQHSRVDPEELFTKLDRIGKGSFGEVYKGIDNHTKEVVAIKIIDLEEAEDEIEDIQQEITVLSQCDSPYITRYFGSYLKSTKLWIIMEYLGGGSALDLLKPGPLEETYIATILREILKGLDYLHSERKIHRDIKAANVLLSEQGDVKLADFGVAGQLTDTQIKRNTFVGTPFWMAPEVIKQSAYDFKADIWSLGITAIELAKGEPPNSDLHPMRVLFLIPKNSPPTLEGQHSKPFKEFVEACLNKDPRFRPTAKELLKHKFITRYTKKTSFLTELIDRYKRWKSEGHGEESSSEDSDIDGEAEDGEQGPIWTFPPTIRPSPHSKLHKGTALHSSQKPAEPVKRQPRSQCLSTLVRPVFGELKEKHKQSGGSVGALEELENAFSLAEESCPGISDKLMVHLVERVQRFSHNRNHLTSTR

[6] = target: Myosin-IIIa (Homo sapiens) (UniProt Q8NEV4); experiment: Inhibition of human MYO3A assessed as percent of control at 2000 nM by KINOMEscan assay relative to control; set-up: scale not given: the % may be the effect or the level left
CWR22R = experiment: Antitumor activity against human 22Rv1 cells expressing AR-V7 xenografted in male nude mouse assessed as suppression of tumor growth at 50 mg/kg, administered once a day for 40 days; type: functional, organism-based
[7] = tested on: Epidermal growth factor receptor (Homo sapiens), P00533 [UNDEFINED MUTATION]; experiment: Inhibition of human EGFR L747-S752del/P753S double mutant assessed as percent of control at 2000 nM by KINOMEscan assay relative to control; set-up: scale not given: the % may be the effect or the level left
Chain of Epidermal growth factor receptor (Homo sapiens), P00533 [UNDEFINED MUTATION] (P00533 whole entry, looked up, stated change not applied): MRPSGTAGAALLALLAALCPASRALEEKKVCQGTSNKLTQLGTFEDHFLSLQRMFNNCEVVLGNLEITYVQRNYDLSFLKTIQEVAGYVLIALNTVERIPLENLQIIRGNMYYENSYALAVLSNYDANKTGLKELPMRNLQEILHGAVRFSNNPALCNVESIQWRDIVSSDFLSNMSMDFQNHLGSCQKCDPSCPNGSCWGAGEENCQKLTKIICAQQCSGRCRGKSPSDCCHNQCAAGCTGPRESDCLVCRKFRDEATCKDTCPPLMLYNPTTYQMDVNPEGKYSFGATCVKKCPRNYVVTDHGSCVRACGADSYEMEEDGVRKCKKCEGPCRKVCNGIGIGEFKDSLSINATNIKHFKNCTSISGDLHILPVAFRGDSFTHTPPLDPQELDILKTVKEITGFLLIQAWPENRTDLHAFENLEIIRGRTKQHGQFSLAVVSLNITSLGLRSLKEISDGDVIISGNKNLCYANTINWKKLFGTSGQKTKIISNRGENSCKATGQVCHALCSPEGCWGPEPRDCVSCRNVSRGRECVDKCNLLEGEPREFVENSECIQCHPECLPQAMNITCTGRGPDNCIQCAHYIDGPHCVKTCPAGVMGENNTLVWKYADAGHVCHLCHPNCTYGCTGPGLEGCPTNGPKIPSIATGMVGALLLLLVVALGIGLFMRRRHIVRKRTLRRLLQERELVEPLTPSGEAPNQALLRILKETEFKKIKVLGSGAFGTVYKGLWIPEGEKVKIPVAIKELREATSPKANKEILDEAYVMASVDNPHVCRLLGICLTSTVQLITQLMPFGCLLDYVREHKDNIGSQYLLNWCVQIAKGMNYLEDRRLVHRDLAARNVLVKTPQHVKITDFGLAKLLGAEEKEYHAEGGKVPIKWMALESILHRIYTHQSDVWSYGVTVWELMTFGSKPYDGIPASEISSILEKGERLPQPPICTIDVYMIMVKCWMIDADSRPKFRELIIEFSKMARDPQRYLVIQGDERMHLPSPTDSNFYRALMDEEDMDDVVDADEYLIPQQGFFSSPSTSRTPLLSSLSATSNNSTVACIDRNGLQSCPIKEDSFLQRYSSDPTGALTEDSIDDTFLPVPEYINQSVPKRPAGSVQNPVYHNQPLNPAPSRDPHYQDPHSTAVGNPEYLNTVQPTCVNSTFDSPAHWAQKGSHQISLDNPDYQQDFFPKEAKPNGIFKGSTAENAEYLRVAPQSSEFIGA

[8] = target: Homeodomain-interacting protein kinase 1 (Homo sapiens) (UniProt Q86Z02); experiment: Inhibition of human HIPK1 assessed as percent of control at 2000 nM by KINOMEscan assay relative to control; set-up: scale not given: the % may be the effect or the level left
[9] = target: Tyrosine-protein kinase Yes (Homo sapiens) (UniProt P07947); experiment: Inhibition of human YES assessed as percent of control at 2000 nM by KINOMEscan assay relative to control; set-up: scale not given: the % may be the effect or the level left
[10] = target: Glycogen synthase kinase-3 beta (Homo sapiens) (UniProt P49841); experiment: Inhibition of human GSK3B assessed as percent of control at 2000 nM by KINOMEscan assay relative to control; set-up: scale not given: the % may be the effect or the level left
[11] = target: Fibroblast growth factor receptor 4 (Homo sapiens) (UniProt P22455); experiment: Inhibition of human FGFR4 assessed as percent of control at 2000 nM by KINOMEscan assay relative to control; set-up: scale not given: the % may be the effect or the level left
Chain of Fibroblast growth factor receptor 4 (Homo sapiens) (P22455 22-802 limits assumed): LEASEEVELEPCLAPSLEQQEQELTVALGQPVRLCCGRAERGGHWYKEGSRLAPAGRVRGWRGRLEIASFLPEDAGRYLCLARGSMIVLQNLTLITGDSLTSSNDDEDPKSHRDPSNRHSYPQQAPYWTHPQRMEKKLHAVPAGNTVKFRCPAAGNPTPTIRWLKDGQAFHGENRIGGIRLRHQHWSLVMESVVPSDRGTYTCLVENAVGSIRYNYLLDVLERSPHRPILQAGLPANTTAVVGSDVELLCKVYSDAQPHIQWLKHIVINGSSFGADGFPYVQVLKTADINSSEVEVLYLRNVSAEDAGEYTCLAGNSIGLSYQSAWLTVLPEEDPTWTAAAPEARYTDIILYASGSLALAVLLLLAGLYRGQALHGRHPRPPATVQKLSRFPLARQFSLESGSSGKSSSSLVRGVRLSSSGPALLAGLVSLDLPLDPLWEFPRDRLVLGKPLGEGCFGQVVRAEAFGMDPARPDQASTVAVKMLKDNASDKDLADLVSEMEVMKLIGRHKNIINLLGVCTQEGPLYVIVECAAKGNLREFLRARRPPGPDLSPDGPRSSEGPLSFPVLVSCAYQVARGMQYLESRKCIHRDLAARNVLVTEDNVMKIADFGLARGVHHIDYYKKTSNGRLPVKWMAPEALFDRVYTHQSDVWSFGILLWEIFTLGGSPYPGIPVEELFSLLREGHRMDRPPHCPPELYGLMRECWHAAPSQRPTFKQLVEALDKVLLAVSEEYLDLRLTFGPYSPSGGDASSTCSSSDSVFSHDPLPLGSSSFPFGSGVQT

[12] = target: Mitogen-activated protein kinase 1 (Homo sapiens) (UniProt P28482); experiment: Inhibition of human ERK2 assessed as percent of control at 2000 nM by KINOMEscan assay relative to control; set-up: scale not given: the % may be the effect or the level left
Chain of Mitogen-activated protein kinase 1 (Homo sapiens) (P28482 whole entry): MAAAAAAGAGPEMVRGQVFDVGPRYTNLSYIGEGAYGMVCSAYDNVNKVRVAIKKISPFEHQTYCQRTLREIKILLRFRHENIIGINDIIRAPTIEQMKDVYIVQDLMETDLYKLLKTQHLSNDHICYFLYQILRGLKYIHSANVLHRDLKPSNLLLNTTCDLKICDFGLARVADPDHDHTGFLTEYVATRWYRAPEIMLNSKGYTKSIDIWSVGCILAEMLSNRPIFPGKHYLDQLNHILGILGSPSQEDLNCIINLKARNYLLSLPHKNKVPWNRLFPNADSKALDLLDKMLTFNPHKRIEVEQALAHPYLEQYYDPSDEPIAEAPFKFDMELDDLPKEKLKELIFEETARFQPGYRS

[13] = target: Homeodomain-interacting protein kinase 2 (Homo sapiens) (UniProt Q9H2X6); experiment: Inhibition of human HIPK2 assessed as percent of control at 2000 nM by KINOMEscan assay relative to control; set-up: scale not given: the % may be the effect or the level left
[14] = target: 1-phosphatidylinositol 3-phosphate 5-kinase (Homo sapiens) (UniProt Q9Y2I7); experiment: Inhibition of human PIKFYVE assessed as percent of control at 2000 nM by KINOMEscan assay relative to control; set-up: scale not given: the % may be the effect or the level left
[15] = target: Casein kinase I isoform gamma-3 (Homo sapiens) (UniProt Q9Y6M4); experiment: Inhibition of human CSNK1G3 assessed as percent of control at 2000 nM by KINOMEscan assay relative to control; set-up: scale not given: the % may be the effect or the level left
[16] = target: Aurora kinase C (Homo sapiens) (UniProt Q9UQB9); experiment: Inhibition of human AURKC assessed as percent of control at 2000 nM by KINOMEscan assay relative to control; set-up: scale not given: the % may be the effect or the level left
[17] = tested on: Phosphatidylinositol 4,5-bisphosphate 3-kinase catalytic subunit alpha isoform (Homo sapiens), P42336 [I800L]; experiment: Inhibition of human PIK3CA I800L mutant assessed as percent of control at 2000 nM by KINOMEscan assay relative to control; set-up: scale not given: the % may be the effect or the level left
[18] = target: Mast/stem cell growth factor receptor Kit (Homo sapiens) (UniProt P10721); experiment: Inhibition of human autoinhibited KIT assessed as percent of control at 2000 nM by KINOMEscan assay relative to control; set-up: scale not given: the % may be the effect or the level left
Chain of Mast/stem cell growth factor receptor Kit (Homo sapiens) (P10721 whole entry, canonical isoform): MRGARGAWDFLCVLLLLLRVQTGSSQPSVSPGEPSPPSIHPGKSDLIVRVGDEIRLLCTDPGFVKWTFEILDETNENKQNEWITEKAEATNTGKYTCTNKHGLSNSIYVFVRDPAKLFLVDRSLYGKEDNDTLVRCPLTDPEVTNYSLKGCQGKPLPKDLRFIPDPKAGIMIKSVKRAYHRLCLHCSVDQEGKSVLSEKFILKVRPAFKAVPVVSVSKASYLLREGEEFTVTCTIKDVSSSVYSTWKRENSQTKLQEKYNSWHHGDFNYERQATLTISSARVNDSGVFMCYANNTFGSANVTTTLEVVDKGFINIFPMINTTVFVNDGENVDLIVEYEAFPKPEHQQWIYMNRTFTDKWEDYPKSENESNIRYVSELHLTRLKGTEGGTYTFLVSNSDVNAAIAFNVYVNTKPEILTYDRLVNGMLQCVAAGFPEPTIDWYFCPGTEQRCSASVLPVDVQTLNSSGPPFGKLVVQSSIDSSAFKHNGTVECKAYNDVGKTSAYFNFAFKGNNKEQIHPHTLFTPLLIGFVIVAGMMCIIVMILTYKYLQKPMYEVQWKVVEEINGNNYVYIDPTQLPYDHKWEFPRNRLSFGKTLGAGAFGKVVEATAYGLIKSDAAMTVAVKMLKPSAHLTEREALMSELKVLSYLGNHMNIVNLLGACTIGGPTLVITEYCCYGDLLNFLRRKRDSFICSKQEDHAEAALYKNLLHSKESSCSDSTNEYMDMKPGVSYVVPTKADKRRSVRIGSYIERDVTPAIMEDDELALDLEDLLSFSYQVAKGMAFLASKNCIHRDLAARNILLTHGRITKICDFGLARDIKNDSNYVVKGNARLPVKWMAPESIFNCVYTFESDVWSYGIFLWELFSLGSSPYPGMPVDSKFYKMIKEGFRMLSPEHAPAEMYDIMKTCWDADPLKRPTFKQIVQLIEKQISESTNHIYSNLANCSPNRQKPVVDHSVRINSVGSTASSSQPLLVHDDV

[19] = tested on: Phosphatidylinositol 4,5-bisphosphate 3-kinase catalytic subunit alpha isoform (Homo sapiens), P42336 [Q546K]; experiment: Inhibition of human PIK3CA Q546K mutant assessed as percent of control at 2000 nM by KINOMEscan assay relative to control; set-up: scale not given: the % may be the effect or the level left
[20] = tested on: Mast/stem cell growth factor receptor Kit (Homo sapiens), P10721 [V559D,V654A]; experiment: Inhibition of human KIT V559D/V654A double mutant assessed as percent of control at 2000 nM by KINOMEscan assay relative to control; set-up: scale not given: the % may be the effect or the level left
Chain of Mast/stem cell growth factor receptor Kit (Homo sapiens), P10721 [V559D,V654A] (P10721 whole entry V559D/V654A): as the sequence (P10721 whole entry, canonical isoform) above, with V559D, V654A counted along it

[21] = target: Calcium/calmodulin-dependent protein kinase type 1G (Homo sapiens) (UniProt Q96NX5); experiment: Inhibition of human CAMK1G assessed as percent of control at 2000 nM by KINOMEscan assay relative to control; set-up: scale not given: the % may be the effect or the level left
[22] = target: Cyclin-G-associated kinase (Homo sapiens) (UniProt O14976); experiment: Inhibition of human GAK assessed as percent of control at 2000 nM by KINOMEscan assay relative to control; set-up: scale not given: the % may be the effect or the level left
[23] = tested on: Receptor-type tyrosine-protein kinase FLT3 (Homo sapiens), P36888 [D835Y]; experiment: Inhibition of human FLT3 D835Y mutant assessed as percent of control at 2000 nM by KINOMEscan assay relative to control; set-up: scale not given: the % may be the effect or the level left
[24] = target: Inhibitor of nuclear factor kappa-B kinase subunit alpha (Homo sapiens) (UniProt O15111); experiment: Inhibition of human IKK-alpha assessed as percent of control at 2000 nM by KINOMEscan assay relative to control; set-up: scale not given: the % may be the effect or the level left
Chain of Inhibitor of nuclear factor kappa-B kinase subunit alpha (Homo sapiens) (O15111 whole entry): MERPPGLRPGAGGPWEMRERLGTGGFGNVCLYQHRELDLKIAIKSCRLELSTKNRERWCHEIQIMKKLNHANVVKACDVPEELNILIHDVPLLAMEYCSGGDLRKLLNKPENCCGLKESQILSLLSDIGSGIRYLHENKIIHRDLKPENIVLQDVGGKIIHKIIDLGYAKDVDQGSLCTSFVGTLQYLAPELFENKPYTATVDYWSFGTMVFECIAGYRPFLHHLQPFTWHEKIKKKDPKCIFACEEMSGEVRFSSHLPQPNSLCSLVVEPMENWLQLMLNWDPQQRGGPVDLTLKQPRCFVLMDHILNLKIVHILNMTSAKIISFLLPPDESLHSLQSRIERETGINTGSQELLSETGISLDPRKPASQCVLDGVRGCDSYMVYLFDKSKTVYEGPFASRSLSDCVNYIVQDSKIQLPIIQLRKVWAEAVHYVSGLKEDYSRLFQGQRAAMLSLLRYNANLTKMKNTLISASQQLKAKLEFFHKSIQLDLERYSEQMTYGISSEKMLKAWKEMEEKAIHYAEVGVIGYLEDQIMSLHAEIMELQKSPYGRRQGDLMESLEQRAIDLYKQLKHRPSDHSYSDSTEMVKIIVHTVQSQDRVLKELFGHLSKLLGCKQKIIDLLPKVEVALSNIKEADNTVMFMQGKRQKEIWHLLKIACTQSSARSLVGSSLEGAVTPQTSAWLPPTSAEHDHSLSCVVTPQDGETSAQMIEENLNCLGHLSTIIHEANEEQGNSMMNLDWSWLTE

[25] = target: Proto-oncogene tyrosine-protein kinase Src (Homo sapiens) (UniProt P12931); experiment: Inhibition of human SRC assessed as percent of control at 2000 nM by KINOMEscan assay relative to control; set-up: scale not given: the % may be the effect or the level left
[26] = target: Cyclin-dependent kinase 19 (Homo sapiens) (UniProt Q9BWU1); conditions: INHIBITOR, dose 2000.0 nM
Description: Inhibition of human CDK19 at 2000 nM by KINOMEscan assay

[27] = target: Serine/threonine-protein kinase ULK3 (Homo sapiens) (UniProt Q6PHR2); experiment: Inhibition of human ULK3 assessed as percent of control at 2000 nM by KINOMEscan assay relative to control; set-up: scale not given: the % may be the effect or the level left
[28] = target: Serine/threonine-protein kinase 38-like (Homo sapiens) (UniProt Q9Y2H1); experiment: Inhibition of human NDR2 assessed as percent of control at 2000 nM by KINOMEscan assay relative to control; set-up: scale not given: the % may be the effect or the level left
[29] = target: Dual specificity protein kinase CLK1 (Homo sapiens) (UniProt P49759); experiment: Inhibition of human CLK1 assessed as percent of control at 2000 nM by KINOMEscan assay relative to control; set-up: scale not given: the % may be the effect or the level left

## CN(C)C(=O)c1ccc(N2CCCN(c3ccnc4sc(C(N)=O)c(N)c34)CC2)cc1
[1]
  Activity: 89% and 97%
[2]
  Activity: 100% and 96%
[3]
  Activity: 75% and 85%
[4]
  Activity: 100% and 96%
[5]
  Activity: 76% and 98%
[6]
  Activity: 100%
CWR22R
  Activity: Active
[7]
  Activity: 99% and 100%
[8]
  Activity: 86% and 71%
[9]
  Activity: 99% and 100%
[10]
  Activity: 79% and 77%
[11]
  Activity: 100% and 96%
[12]
  Activity: 78% and 92%
[13]
  Activity: 100% and 81%
[14]
  Activity: 91% and 98%
[15]
  Activity: 95% and 80%
[16]
  Activity: 100%
[17]
  Activity: 97% and 74%
[18]
  Activity: 90%
[19]
  Activity: 66% and 72%
[20]
  Activity: 100%
[21]
  Activity: 99%
[22]
  Activity: 88% and 94%
[23]
  Activity: 100%
[23]; INHIBITOR
  Activity: 46%
[24]
  Activity: 77% and 90%
[25]
  Activity: 100% and 96%
[26]
  inhibition: > 65%
[27]
  Activity: 96% and 79%
[28]
  Activity: 99%
[28]; INHIBITOR
  Activity: 36%
[29]
  Activity: 88% and 68%
